Data from US11981660B2, “Neurite outgrowth promoters and uses thereof” (UNIVERSITY OF MIAMI, priority 2018, dated 2024).

Tested on: hippocampal neurons
Assay: Neurite outgrowth assay in cultured E18 rat hippocampal neurons (48 h, βIII-tubulin staining, Cellomics ArrayScan)
Type: cell-based
Conditions: Hippocampal neuron; for activity at 0.015625 µg/mL: 15.625 ng/mL compound; for activity at 0.015625 µg/mL / activity at 0.03125 µg/mL / activity at 0.0625 µg/mL / activity at 0.125 µg/mL / activity at 0.25 µg/mL / activity at 0.5 µg/mL: 48 hours, read-out: neurite growth length (% NTL); for activity at 0.03125 µg/mL: 31.25 ng/mL compound; for activity at 0.0625 µg/mL: 62.5 ng/mL compound; for activity at 0.125 µg/mL: 125 ng/mL compound; for activity at 0.25 µg/mL: 250 ng/mL compound; for activity at 0.5 µg/mL: 500 ng/mL compound; for EC200 / EC300: 48 h, estimated using linear interpolation; for EC200: 200% effective dose, read-out: ED200%; for EC300: 300% effective dose, read-out: ED300%
Procedure: Pre-coating culture plates: On the day before the experiment, 96-well plates were pre-coated by plating 50 μL of poly-D-lysine solution (PDL, 0.5 mg/mL) in each well. The next morning, the plates were washed four or five times with HBSS or PBS (150 μL/rinse), then left in buffer until cell plating
Preparing the cells: A timed pregnant rat carrying E18 embryos was euthanized using an IACUC approved method. In a laminar flow hood, the embryos were removed and placed in a petri dish containing Hank's Balanced Salt Solution (HBSS) with 20 mM HEPES, pH 7.3. Pup brains were dissected (see Meberg et al., Methods cell Biol 71:111-127 (2003)) and hippocampi were collected in 15 mL a conical tube containing Hibernate E with SM1 (2% v/v).
Dissociation media was prepared by combining 4.5 mL of Hibernate E (without SM1) with 0.5 mL of trypsin and 100 μl of DNAse solution. The medium over the hippocampi was carefully removed and replaced with dissociation solution, then incubated at 37° C. for 15-20 minutes, occasionally swirling the tube.
Using flame polished cotton plugged Pasteur pipettes, the dissociation media was removed, and then 5 mL of Hibernate E containing SM1 were added. The tube was swirled to thoroughly wash the tissue. The tissue was allowed to settle to the bottom of the tube, and the rinse solution was carefully removed. This step was repeated 5 times to dilute out trypsin and DNAse and remove any debris from lysed cells.
The final rinse media was removed from the tube and 1 pipette-full (1-2 mL) of Hibernate E with SM1 was added. Using the flame-polished Pasteur pipette (pre-wetted with rinse media), the tube was triturated until all cells had dissociated and no visible chunks of tissue remained. Fewer than ten triturations were typically performed. The volume was adjusted to 8-12 mL using Hibernate E containing SM1, the well was mixed and cell concentration was determined.
Plating: The cells were diluted in culture media (NbActiv4 Cell-culture media) to a final concentration of 10,000 cells/mL. The HBSS was aspirated from PDL coated plates, and 150 μL of cell solution was loaded in the middle 48 wells at 1500 cells per well. Water was loaded in the outer wells to decrease evaporation from edge wells. Cells were allowed to adhere for 2 hours in tissue culture incubator prior to treatment.
Treatment: Compounds were diluted to various concentrations to provide 6 dose response concentrations of 500 ng/mL, 250 ng/mL, 125 ng/mL, 62.5 ng/mL, 31.25 ng/mL, and 15.625 ng/mL. The plates were cultured for 48 hours, exposed to the compound at the various dose response concentrations.
Fixing the cultures: The culture medium was removed from the plates and immediately replaced with 100-200 μL of warm (37° C.) 4% paraformaldehyde (“PFA”) solution in phosphate-buffered saline (“PBS”). The cells were fixed for 15-20 minutes at room temperature, and then rinsed with PBS (200 μl/well×3).
Staining and imaging: The PBS was removed and replaced with 100 μL of blocking/permeabilization buffer (PBS, 0.2% fish gelatin, 0.03% Triton X-100, 0.02% NaN3), then incubated overnight at 4° C. To this was added 100 μL of primary antibody solution (mouse anti-Beta III tubulin in blocking buffer) and incubate overnight at 4° C. The wells were rinsed with PBS (200 μl×3), which was then removed and replaced with 100 μL of secondary antibody solution (Goat anti-mouse Alexa 488, 10 μg/ml Hoechst 33342, 0.2% fish gelatin, 0.02% azide, in PBS). The plate was shaken gently on a rotating shaker for 2 hours, then rinsed with PBS (200 μl×5).
The plate was imaged using a Cellomics ArrayScan VTI in 2 different channels for nuclear staining (Hoechst) and cell body/neurite staining (βIII-tubulin). Typically, nine fields per well were imaged with a 5× objective and automatically traced by the Neuronal Profiling Bioapplication. To get reproducible results, at least 200-300 valid neurons were measured per condition. […]

SMILES	activity at 0.015625 µg/mL [%]	activity at 0.03125 µg/mL [%]	activity at 0.0625 µg/mL [%]	activity at 0.125 µg/mL [%]	activity at 0.25 µg/mL [%]	activity at 0.5 µg/mL [%]	EC200 [µM]	EC300 [µM]
CC1CCC(CN2C(=S)N(CCCC[C@H]3CNC(C4CCCC4)=N3)C[C@H]2c2ccccc2)CC1 (stereo partly drawn) [Compound A26, (R)-1-(4-((S)-2-cyclopentyl-4,5-dihydro-1H-imidazol-4-yl)butyl)-3-((4-methylcyclohexyl)methyl)-4-phenylimidazolidine-2-thione]	251	272	306	286	271	230	0.002	> 0.52
CC1CCC(CN2C(=S)N(CCCC[C@H]3CNC(C4CCCC4)=N3)C[C@H]2C)CC1 (stereo partly drawn) [Compound A8, (R)-1-(4-((S)-2-cyclopentyl-4,5-dihydro-1H-imidazol-4-yl)butyl)-4-methyl-3-((4-methylcyclohexyl)methyl)imidazolidine-2-thione]	95	128	168	231	257	322	0.13	0.282
CC(C)C[C@@H]1CN(CCCC[C@H]2CNC(C3CCCC3)=N2)C(=S)N1CCC1CCCCC1 [Compound A14, (R)-3-(2-cyclohexylethyl)-1-(4-((S)-2-cyclopentyl-4,5-dihydro-1H-imidazol-4-yl)butyl)-4-isobutylimidazolidine-2-thione]	195	256	271	283	277	249	0.004	> 0.543
CC(C)CCCN1C(=S)N(CCCC[C@H]2CNC(C3CCCC3)=N2)C[C@H]1CC(C)C [Compound A11, (R)-1-(4-((S)-2-cyclopentyl-4,5-dihydro-1H-imidazol-4-yl)butyl)-4-isobutyl-3-(4-methylpentyl)imidazolidine-2-thione]	135	215	266	273	264	256		
CC1CCC(CN2C(=S)N(CCCC[C@H]3CNC(CCCc4ccccc4)=N3)C[C@H]2C)CC1 (stereo partly drawn) [Compound A9, (R)-4-methyl-3-((4-methylcyclohexyl)methyl)-1-(4-((S)-2-(3-phenylpropyl)-4,5-dihydro-1H-imidazol-4-yl)butyl)imidazolidine-2-thione]	88	102	118	70	238	297		
